Test results: ChEMBL document CHEMBL1201862, “PubChem BioAssay data set” (2004)
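Cells were grown in 96-well plates and exposed to each compound for 48 hours at five concentrations; endpoints were interpolated linearly between bracketing concentrations, or set to the highest concentration if not reached. Abbreviation: GI50, concentration required for 50% inhibition of growth.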 Activity calls are given as the source filed them. No stated cut-off is given here; in the data, active = GI50 up to about 1.1 µM and inactive = higher.

Experiments:
Experiment in all cases: growth of human tumour cells (NCI), 48 h
[1] = test system: PC-3
[2] = test system: TK-10
[3] = test system: RPMI-8226
[4] = test system: MDA-MB-231
[5] = test system: MDA-N
[6] = test system: ACHN
[7] = test system: SR
[8] = test system: T47D
[9] = test system: MDA-MB-435
[10] = test system: RXF 393
[11] = test system: M14
[12] = test system: HCC 2998
[13] = test system: NCI-H522
[14] = test system: HOP-62
[15] = test system: A498
[16] = test system: Malme-3M
[17] = test system: NCI-H226
[18] = test system: M19-MEL
[19] = test system: DLD-1
[20] = test system: DMS-114

Row | Compound | GI50 [1] | GI50 [2] | GI50 [3] | GI50 [4] | GI50 [5] | GI50 [6] | GI50 [7] | GI50 [8] | GI50 [9] | GI50 [10] | GI50 [11] | GI50 [12] | GI50 [13] | GI50 [14] | GI50 [15] | GI50 [16] | GI50 [17] | GI50 [18] | GI50 [19] | GI50 [20]
1 | NC(CCOCCP(=O)(O)CCC1C=CC=CC1)C(=O)O (stereo unspecified) | > 100 µM (inactive) | > 100 µM (inactive) | > 100 µM (inactive) | > 100 µM (inactive) | > 100 µM (inactive) | > 100 µM (inactive) | > 100 µM (inactive) | 43.3 µM (inactive) | > 100 µM (inactive) | > 100 µM (inactive) | > 100 µM (inactive) | > 100 µM (inactive) | > 100 µM (inactive) | – | – | – | – | – | – | –
2 | CC(=O)NC1CC(C(C)(C)NC(C)=O)CC=C1C (stereo unspecified) | > 100 µM (inactive) | > 100 µM (inactive) | – | > 100 µM (inactive) | > 100 µM (inactive) | – | > 100 µM (inactive) | > 100 µM (inactive) | > 100 µM (inactive) | – | > 100 µM (inactive) | > 100 µM (inactive) | > 100 µM (inactive) | > 100 µM (inactive) | – | – | – | – | – | –
3 | CC1C(NNC(N)=O)Oc2cc3c(cc2C1c1ccccc1O)OCO3 (stereo unspecified) | 24.5 µM (inactive) | 46 µM (inactive) | 21.5 µM (inactive) | 55.7 µM (inactive) | 22.3 µM (inactive) | 39.5 µM (inactive) | 15 µM (inactive) | 38.6 µM (inactive) | 20.5 µM (inactive) | 23.8 µM (inactive) | 39.3 µM (inactive) | 84.3 µM (inactive) | 14.8 µM (inactive) | 31.3 µM (inactive) | 25.9 µM (inactive) | 28.6 µM (inactive) | 34.6 µM (inactive) | – | – | –
4 | C=C1CC(OC)(C(O)C(=O)N[C@H]2OCO[C@H]3C2O[C@H](C[C@@H](CO)OC)C(C)(C)C3OC)O[C@H](C)[C@@H]1C (stereo partly specified) | – | – | < 0.00931 µM (active) | – | – | – | – | – | – | < 0.00931 µM (active) | – | – | – | < 0.00931 µM (active) | < 0.00931 µM (active) | – | < 0.00931 µM (active) | < 0.00931 µM (active) | < 0.00931 µM (active) | < 0.00931 µM (active)
5 | O=C(Nc1ccc(F)cc1)c1cc2ccc(O)cc2o/c1=N\c1ccccc1F | 32.3 µM (inactive) | – | 8.04 µM (inactive) | – | 34.6 µM (inactive) | 20 µM (inactive) | 36.1 µM (inactive) | 14.8 µM (inactive) | 27.9 µM (inactive) | – | – | 33.7 µM (inactive) | 12.1 µM (inactive) | 11.5 µM (inactive) | 37.6 µM (inactive) | 50 µM (inactive) | – | – | – | –
6 | O=C1C(=O)c2cc([N+](=O)[O-])ccc2-c2ccc([N+](=O)[O-])cc21 | – | – | 0.302 µM (active) | – | – | – | – | – | – | 0.191 µM (active) | – | 2.25 µM (inactive) | 0.863 µM (active) | 2.89 µM (inactive) | 1.9 µM (inactive) | 1.97 µM (inactive) | 1.51 µM (inactive) | 0.285 µM (active) | 1.64 µM (inactive) | 0.375 µM (active)
7 | O=C1C=CC2(O[C@@H](Cc3ccccc3)[C@H](Cc3ccccc3)O2)C(SC(=O)c2ccccc2)C1 (stereo partly specified) | 1.53 µM (inactive) | 1.54 µM (inactive) | 0.292 µM (active) | 2.52 µM (inactive) | 0.853 µM (active) | 0.929 µM (active) | 0.138 µM (active) | 0.764 µM (active) | 2.11 µM (inactive) | 0.0849 µM (active) | 1.45 µM (inactive) | – | – | 1.11 µM (active) | 4.93 µM (inactive) | 2.07 µM (inactive) | 1.52 µM (inactive) | – | – | –
8 | Cc1ccc(S(=O)(=O)NNC2Oc3cc4c(cc3C(c3ccccc3O)C2C)OCO4)cc1 (stereo unspecified) | 10.1 µM (inactive) | 15.5 µM (inactive) | 12.2 µM (inactive) | 16 µM (inactive) | 12.3 µM (inactive) | 13.2 µM (inactive) | 13.3 µM (inactive) | 12 µM (inactive) | 13 µM (inactive) | 4.22 µM (inactive) | 13.4 µM (inactive) | 16.9 µM (inactive) | 12.4 µM (inactive) | 15.1 µM (inactive) | 16.8 µM (inactive) | 12.2 µM (inactive) | 12.4 µM (inactive) | – | – | –
9 | O=C(CCC(=O)Nc1ccc(Cl)c(Cl)c1)CC(=O)c1ccc(Br)cc1 | – | > 100 µM (inactive) | > 100 µM (inactive) | – | – | 71.8 µM (inactive) | – | – | – | > 100 µM (inactive) | > 100 µM (inactive) | – | > 100 µM (inactive) | – | > 100 µM (inactive) | > 100 µM (inactive) | > 100 µM (inactive) | > 100 µM (inactive) | > 100 µM (inactive) | > 100 µM (inactive)
10 | O=C1C(=CNC(=S)c2ccccc2)C(=O)c2ccccc21 | 63.2 µM (inactive) | 41.6 µM (inactive) | 25.2 µM (inactive) | 55.2 µM (inactive) | 52.7 µM (inactive) | 38.9 µM (inactive) | – | 60.1 µM (inactive) | 71.8 µM (inactive) | 46.7 µM (inactive) | 65.6 µM (inactive) | 37 µM (inactive) | 21 µM (inactive) | 91.8 µM (inactive) | – | – | > 100 µM (inactive) | – | – | –
11 | Nc1c(C(=O)Nc2ccc(C3=NCCN3)cc2)cccc1C(=O)Nc1ccc(C2=NCCN2)cc1 | – | – | > 100 µM (inactive) | – | – | – | – | – | – | > 100 µM (inactive) | – | > 71.6 µM (inactive) | > 65.2 µM (inactive) | – | > 100 µM (inactive) | > 100 µM (inactive) | > 100 µM (inactive) | > 100 µM (inactive) | > 100 µM (inactive) | > 100 µM (inactive)
12 | Cn1c(=O)ccc2c(=O)c3ccccc3oc21 | > 100 µM (inactive) | > 100 µM (inactive) | – | > 100 µM (inactive) | > 100 µM (inactive) | > 100 µM (inactive) | > 100 µM (inactive) | > 100 µM (inactive) | > 100 µM (inactive) | 64.9 µM (inactive) | > 100 µM (inactive) | > 100 µM (inactive) | > 100 µM (inactive) | > 100 µM (inactive) | > 100 µM (inactive) | > 100 µM (inactive) | > 100 µM (inactive) | – | – | –
13 | c1ccc(CN2CCC3(CC2)SSC2(CCN(Cc4ccccc4)CC2)SS3)cc1 | > 100 µM (inactive) | > 100 µM (inactive) | > 100 µM (inactive) | > 100 µM (inactive) | > 100 µM (inactive) | > 100 µM (inactive) | 83.2 µM (inactive) | > 100 µM (inactive) | > 100 µM (inactive) | > 100 µM (inactive) | > 100 µM (inactive) | 45.5 µM (inactive) | 37 µM (inactive) | > 100 µM (inactive) | > 100 µM (inactive) | 97.5 µM (inactive) | > 100 µM (inactive) | – | – | –
14 | Cc1cc2nc3c(C)c4ccccc4c(C)n3c2cc1C | 2.96 µM (inactive) | 5.27 µM (inactive) | 3.21 µM (inactive) | 1.62 µM (inactive) | 1.89 µM (inactive) | 1.67 µM (inactive) | 2.96 µM (inactive) | > 10 µM (inactive) | 3.02 µM (inactive) | 2.84 µM (inactive) | 2.61 µM (inactive) | 3.33 µM (inactive) | 2.51 µM (inactive) | 2.19 µM (inactive) | – | 1.98 µM (inactive) | – | – | – | –
15 | CN(c1ccccc1)c1c(-c2ccccc2)c(=O)oc2c1ccc1occc12 | – | – | – | – | – | – | – | – | – | > 92.3 µM (inactive) | – | > 100 µM (inactive) | > 100 µM (inactive) | > 100 µM (inactive) | > 100 µM (inactive) | > 100 µM (inactive) | 0.348 µM (active) | > 100 µM (inactive) | > 100 µM (inactive) | > 100 µM (inactive)
16 | NC1C2C=CC(C2)C1C(=O)O (stereo unspecified) | > 100 µM (inactive) | > 100 µM (inactive) | > 100 µM (inactive) | > 100 µM (inactive) | > 100 µM (inactive) | > 100 µM (inactive) | – | > 100 µM (inactive) | > 100 µM (inactive) | > 100 µM (inactive) | > 100 µM (inactive) | – | > 100 µM (inactive) | > 100 µM (inactive) | > 100 µM (inactive) | > 100 µM (inactive) | > 100 µM (inactive) | – | – | –
17 | Nc1nc(N)c2c(CCc3ccc(C(=O)N[C@@H](CCC(=O)O)C(=O)O)cc3)ccnc2n1 | 17.7 µM (inactive) | 0.0363 µM (active) | < 0.0145 µM (active) | > 100 µM (inactive) | < 0.0129 µM (active) | < 0.0236 µM (active) | – | 75.5 µM (inactive) | < 0.01 µM (active) | 0.0465 µM (active) | < 0.0218 µM (active) | < 0.01 µM (active) | 0.0855 µM (active) | – | 0.541 µM (active) | – | > 100 µM (inactive) | – | – | –
18 | COc1ccccc1N1C(Cl)C(=O)C1c1c[nH]c2ccccc12 (stereo unspecified) | – | > 100 µM (inactive) | > 100 µM (inactive) | – | – | – | > 100 µM (inactive) | – | – | > 100 µM (inactive) | > 100 µM (inactive) | – | > 100 µM (inactive) | > 100 µM (inactive) | – | – | – | > 100 µM (inactive) | – | > 100 µM (inactive)
19 | COc1cc2c(cc1Oc1c(Oc3c(O)c(OC)cc4c3C(CC(C)C)N(C)CC4)c(OC)cc3c1C(CC(C)C)N(C)CC3)C(CC(C)C)N(C)CC2 (stereo unspecified) | – | – | 2.34 µM (inactive) | – | – | – | – | – | – | 0.495 µM (active) | – | 0.92 µM (active) | 0.458 µM (active) | 0.533 µM (active) | 0.152 µM (active) | 1.11 µM (active) | 0.422 µM (active) | 0.515 µM (active) | 1.76 µM (inactive) | 0.838 µM (active)
20 | O=C1CC2(CCC(O)(c3ccco3)C(C(=O)c3ccco3)C2)C(=O)c2ccccc2N1 (stereo unspecified) | 54 µM (inactive) | > 100 µM (inactive) | – | > 100 µM (inactive) | > 100 µM (inactive) | – | > 100 µM (inactive) | 26.1 µM (inactive) | > 100 µM (inactive) | > 100 µM (inactive) | 99.5 µM (inactive) | 55.8 µM (inactive) | – | > 100 µM (inactive) | > 100 µM (inactive) | > 100 µM (inactive) | > 100 µM (inactive) | – | – | –
